In ChEMBL document CHEMBL1135305, “Enantiospecific, selective cyclooxygenase-2 inhibitors” (Bioorg Med Chem Lett, 2002):

Experiments:
[1] = target: T1, Prostaglandin G/H synthase 2 (Homo sapiens, UniProt P35354); assay: Inhibitory concentration against human prostaglandin G/H synthase 2
T1 sequence (P35354 whole entry): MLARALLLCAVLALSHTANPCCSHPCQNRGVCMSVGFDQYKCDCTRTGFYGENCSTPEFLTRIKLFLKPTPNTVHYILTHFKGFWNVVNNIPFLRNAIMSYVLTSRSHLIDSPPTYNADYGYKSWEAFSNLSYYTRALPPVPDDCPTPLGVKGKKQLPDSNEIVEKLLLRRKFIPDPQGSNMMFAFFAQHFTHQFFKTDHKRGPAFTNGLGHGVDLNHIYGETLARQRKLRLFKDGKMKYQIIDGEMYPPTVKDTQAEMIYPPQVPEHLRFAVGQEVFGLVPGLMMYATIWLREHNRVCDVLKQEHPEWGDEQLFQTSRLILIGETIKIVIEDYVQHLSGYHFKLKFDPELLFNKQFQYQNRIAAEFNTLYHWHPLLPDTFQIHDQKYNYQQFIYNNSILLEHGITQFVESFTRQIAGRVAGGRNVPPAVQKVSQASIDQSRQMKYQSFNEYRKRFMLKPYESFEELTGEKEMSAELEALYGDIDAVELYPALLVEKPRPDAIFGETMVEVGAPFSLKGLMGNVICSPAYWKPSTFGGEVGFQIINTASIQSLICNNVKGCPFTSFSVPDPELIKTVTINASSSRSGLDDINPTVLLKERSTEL

[2] = target: T2, Prostaglandin G/H synthase 1 (Ovis aries, UniProt P05979)
T2 sequence (P05979 whole entry): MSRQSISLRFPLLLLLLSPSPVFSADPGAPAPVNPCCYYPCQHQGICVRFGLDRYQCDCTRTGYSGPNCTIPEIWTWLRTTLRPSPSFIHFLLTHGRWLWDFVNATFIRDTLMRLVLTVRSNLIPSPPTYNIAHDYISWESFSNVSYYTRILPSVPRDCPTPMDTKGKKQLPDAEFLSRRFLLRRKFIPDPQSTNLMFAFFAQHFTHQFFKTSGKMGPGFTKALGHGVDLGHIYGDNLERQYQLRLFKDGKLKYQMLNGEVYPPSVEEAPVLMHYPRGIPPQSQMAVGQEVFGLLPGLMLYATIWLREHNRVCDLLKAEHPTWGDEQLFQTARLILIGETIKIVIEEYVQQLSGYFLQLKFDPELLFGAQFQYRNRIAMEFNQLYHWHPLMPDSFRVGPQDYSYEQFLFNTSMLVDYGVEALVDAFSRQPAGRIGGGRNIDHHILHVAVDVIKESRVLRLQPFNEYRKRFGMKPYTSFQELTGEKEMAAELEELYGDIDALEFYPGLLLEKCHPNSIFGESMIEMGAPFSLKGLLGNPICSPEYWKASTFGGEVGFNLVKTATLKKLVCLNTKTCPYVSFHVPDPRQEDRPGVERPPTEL
Description: Inhibitory concentration against prostaglandin G/H synthase 1

[3] = target: Prostaglandin G/H synthase 2 (Mus musculus, UniProt Q05769, F343L); assay: Inhibitory concentration against F357L mutant murine Prostaglandin G/H synthase 2
Prostaglandin G/H synthase 2 (Mus musculus, UniProt Q05769, F343L), sequence (Q05769 18-604 F343L limits assumed): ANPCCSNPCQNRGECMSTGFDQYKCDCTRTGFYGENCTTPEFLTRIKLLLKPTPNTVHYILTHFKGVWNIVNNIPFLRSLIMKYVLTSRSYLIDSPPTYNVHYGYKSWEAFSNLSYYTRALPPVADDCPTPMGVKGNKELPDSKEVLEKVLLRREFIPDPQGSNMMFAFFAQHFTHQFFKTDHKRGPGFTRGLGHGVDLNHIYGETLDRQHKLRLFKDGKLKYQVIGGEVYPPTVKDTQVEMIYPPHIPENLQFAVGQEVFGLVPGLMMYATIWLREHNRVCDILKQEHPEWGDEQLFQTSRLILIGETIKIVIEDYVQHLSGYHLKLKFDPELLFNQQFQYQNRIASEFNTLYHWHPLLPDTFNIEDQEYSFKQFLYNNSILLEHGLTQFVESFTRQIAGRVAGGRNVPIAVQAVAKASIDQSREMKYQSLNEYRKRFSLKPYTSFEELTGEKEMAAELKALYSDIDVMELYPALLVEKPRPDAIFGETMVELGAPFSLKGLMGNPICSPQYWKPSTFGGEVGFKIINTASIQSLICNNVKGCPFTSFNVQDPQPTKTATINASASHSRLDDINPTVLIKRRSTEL

[4] = target: Prostaglandin G/H synthase 2 (Mus musculus, UniProt Q05769, H122N); assay: Inhibitory concentration against H122N mutant murine Prostaglandin G/H synthase 2
[5] = target: Prostaglandin G/H synthase 2 (Mus musculus, UniProt Q05769, I92L); assay: Inhibitory concentration against I92L mutant murine Prostaglandin G/H synthase 2
[6] = target: Prostaglandin G/H synthase 2 (Mus musculus, UniProt Q05769, L489F); assay: Inhibitory concentration against L503F mutant murine Prostaglandin G/H synthase 2
Prostaglandin G/H synthase 2 (Mus musculus, UniProt Q05769, L489F), sequence (Q05769 18-604 L489F limits assumed): as the sequence (Q05769 18-604 F343L limits assumed) above, with L326F, L472F counted along it

[7] = target: Prostaglandin G/H synthase 2 (Mus musculus, UniProt Q05769, R106A); assay: Inhibitory concentration against R120A mutant murine Prostaglandin G/H synthase 2
Prostaglandin G/H synthase 2 (Mus musculus, UniProt Q05769, R106A), sequence (Q05769 18-604 R106A limits assumed): as the sequence (Q05769 18-604 F343L limits assumed) above, with R89A, L326F counted along it

[8] = target: Prostaglandin G/H synthase 2 (Mus musculus, UniProt Q05769, R106Q); assay: Inhibitory concentration against R120Q mutant murine Prostaglandin G/H synthase 2
Prostaglandin G/H synthase 2 (Mus musculus, UniProt Q05769, R106Q), sequence (Q05769 18-604 R106Q limits assumed): as the sequence (Q05769 18-604 F343L limits assumed) above, with R89Q, L326F counted along it

[9] = target: Prostaglandin G/H synthase 2 (Mus musculus, UniProt Q05769, S105V); assay: Inhibitory concentration against S119V mutant murine Prostaglandin G/H synthase 2
Prostaglandin G/H synthase 2 (Mus musculus, UniProt Q05769, S105V), sequence (Q05769 18-604 S105V limits assumed): as the sequence (Q05769 18-604 F343L limits assumed) above, with S88V, L326F counted along it

[10] = target: Prostaglandin G/H synthase 2 (Mus musculus, UniProt Q05769, S516A); assay: Inhibitory concentration against S530A mutant murine Prostaglandin G/H synthase 2
Prostaglandin G/H synthase 2 (Mus musculus, UniProt Q05769, S516A), sequence (Q05769 18-604 S516A limits assumed): as the sequence (Q05769 18-604 F343L limits assumed) above, with L326F, S499A counted along it

[11] = target: T3, Prostaglandin G/H synthase 2 (Mus musculus, UniProt Q05769); assay: Inhibitory concentration against V5231, mutant murine Prostaglandin G/H synthase 2
[12] = target: T3, Prostaglandin G/H synthase 2; assay: Inhibitory concentration against VRV, mutant murine Prostaglandin G/H synthase 2
[13] = target: Prostaglandin G/H synthase 2 (Mus musculus, UniProt Q05769, Y101L); assay: Inhibitory concentration against Y115L mutant murine Prostaglandin G/H synthase 2
Prostaglandin G/H synthase 2 (Mus musculus, UniProt Q05769, Y101L), sequence (Q05769 18-604 Y101L limits assumed): as the sequence (Q05769 18-604 F343L limits assumed) above, with Y84L, L326F counted along it

[14] = target: Prostaglandin G/H synthase 2 (Mus musculus, UniProt Q05769, S105V/Y101L); assay: Inhibitory concentration against Y115L/S119V mutant murine Prostaglandin G/H synthase 2
Prostaglandin G/H synthase 2 (Mus musculus, UniProt Q05769, S105V/Y101L), sequence (Q05769 18-604 Y101L/S105V limits assumed): as the sequence (Q05769 18-604 F343L limits assumed) above, with Y84L, S88V, L326F counted along it

[15] = target: T4, Prostaglandin G/H synthase 2 (Mus musculus, UniProt Q05769); assay: Inhibitory concentration against wild type murine Prostaglandin G/H synthase 2
T4 sequence (Q05769 whole entry): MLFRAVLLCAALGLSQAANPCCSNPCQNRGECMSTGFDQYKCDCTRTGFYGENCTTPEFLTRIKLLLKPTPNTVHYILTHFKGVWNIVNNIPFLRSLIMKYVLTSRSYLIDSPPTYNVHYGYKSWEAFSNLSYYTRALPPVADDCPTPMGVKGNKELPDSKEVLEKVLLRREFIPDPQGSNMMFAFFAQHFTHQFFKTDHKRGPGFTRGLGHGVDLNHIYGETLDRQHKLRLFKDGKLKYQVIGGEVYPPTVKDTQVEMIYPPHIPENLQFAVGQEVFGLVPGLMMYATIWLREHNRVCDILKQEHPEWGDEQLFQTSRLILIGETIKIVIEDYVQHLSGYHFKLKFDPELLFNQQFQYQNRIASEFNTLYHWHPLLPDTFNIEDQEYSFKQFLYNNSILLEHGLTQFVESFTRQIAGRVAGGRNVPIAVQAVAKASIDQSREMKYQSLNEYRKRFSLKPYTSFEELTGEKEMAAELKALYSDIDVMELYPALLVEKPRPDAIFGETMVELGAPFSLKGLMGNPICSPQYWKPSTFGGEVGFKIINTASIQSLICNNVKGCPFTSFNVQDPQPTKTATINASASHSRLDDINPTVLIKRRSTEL

[16] = target: T3, Prostaglandin G/H synthase 2; assay: Inhibitory concentration against V891 mutant murine Prostaglandin G/H synthase 2
[17] = target: Prostaglandin G/H synthase 2 (Mus musculus, UniProt Q05769, E510L); assay: Inhibitory concentration against E524L mutant murine Prostaglandin G/H synthase 2
Prostaglandin G/H synthase 2 (Mus musculus, UniProt Q05769, E510L), sequence (Q05769 18-604 E510L limits assumed): as the sequence (Q05769 18-604 F343L limits assumed) above, with L326F, E493L counted along it

[18] = target: T3, Prostaglandin G/H synthase 2; assay: Inhibitory concentration against l503F mutant murine Prostaglandin G/H synthase 2

Row | SMILES | IC50 [1] [nM] | IC50 [2] [nM] | further results
1 | COc1ccc2c(c1)c(CC(=O)NN1CCC[C@H]1CO)c(C)n2C(=O)c1ccc(Cl)cc1 | 1800 | > 80000 | 
2 | COc1ccc2c(c1)c(CC(=O)NN1CCC[C@@H]1CO)c(C)n2C(=O)c1ccc(Cl)cc1 | 1700 | > 80000 | 
3 | COC[C@H](C)NC(=O)Cc1c(C)n(C(=O)c2ccc(Cl)cc2)c2ccc(OC)cc12 | 240 | > 60000 | 
4 | COC[C@@H](C)NC(=O)Cc1c(C)n(C(=O)c2ccc(Cl)cc2)c2ccc(OC)cc12 | 140 | 6800 | 
5 | COc1ccc2c(c1)c(CC(=O)N[C@@H](CO)Cc1ccccc1)c(C)n2C(=O)c1ccc(Cl)cc1 | 220 | > 50000 | 
6 | CCC(C)[C@@H](CO)NC(=O)Cc1c(C)n(C(=O)c2ccc(Cl)cc2)c2ccc(OC)cc12 (stereo not given in full) | 110 | 480 | 
7 | COc1ccc2c(c1)c(CC(=O)NCCCCO)c(C)n2C(=O)c1ccc(Cl)cc1 | 280 | 86000 | 
8 | COc1ccc2c(c1)c(CC(=O)NCCCCCO)c(C)n2C(=O)c1ccc(Cl)cc1 | 290 | > 83000 | 
9 | COc1ccc2c(c1)c(CC(=O)N[C@H](C)CO)c(C)n2C(=O)c1ccc(Cl)cc1 | 170 | 33000 | IC50 [3]: 250 nM; IC50 [4]: 690 nM; IC50 [5]: 200 nM; IC50 [6]: 300 nM; IC50 [7]: 50 nM; IC50 [8]: 90 nM; IC50 [9]: 240 nM; IC50 [10]: 570 nM; IC50 [11]: 690 nM; IC50 [12]: 340 nM; IC50 [13]: 325 nM; IC50 [14]: 290 nM; IC50 [15]: 540 nM; IC50 [16]: 250 nM; IC50 [17]: 560 nM
10 | CC[C@H](CO)NC(=O)Cc1c(C)n(C(=O)c2ccc(Cl)cc2)c2ccc(OC)cc12 | 100 | 59000 | 
11 | COc1ccc2c(c1)c(CC(=O)N[C@H](CO)C(C)C)c(C)n2C(=O)c1ccc(Cl)cc1 | 370 | 400 | 
12 | CC[C@@H](C)NC(=O)Cc1c(C)n(C(=O)c2ccc(Cl)cc2)c2ccc(OC)cc12 | 130 | 180 | 
13 | CC[C@H](C)NC(=O)Cc1c(C)n(C(=O)c2ccc(Cl)cc2)c2ccc(OC)cc12 | 110 | 4700 | 
14 | COc1ccc2c(c1)c(CC(=O)NC[C@H](C)O)c(C)n2C(=O)c1ccc(Cl)cc1 | 320 | 32000 | 
15 | COc1ccc2c(c1)c(CC(=O)NCCCO)c(C)n2C(=O)c1ccc(Cl)cc1 | 220 | 64000 | 
16 | COc1ccc2c(c1)c(CC(=O)N[C@@H](CO)c1ccccc1)c(C)n2C(=O)c1ccc(Cl)cc1 | 440 | 47000 | 
17 | COc1ccc2c(c1)c(CC(=O)N[C@H](CO)c1ccccc1)c(C)n2C(=O)c1ccc(Cl)cc1 | 85 | < 1300 | 
18 | CC[C@@H](CO)NC(=O)Cc1c(C)n(C(=O)c2ccc(Cl)cc2)c2ccc(OC)cc12 | 280 | 350 | 
19 | COc1ccc2c(c1)c(CC(=O)N[C@H](CO)CC(C)C)c(C)n2C(=O)c1ccc(Cl)cc1 | 170 | < 3900 | 
20 | COc1ccc2c(c1)c(CC(=O)N[C@H](CO)CCSC)c(C)n2C(=O)c1ccc(Cl)cc1 | 1000 | 2300 | 
21 | COc1ccc2c(c1)c(CC(=O)NCCCCCCO)c(C)n2C(=O)c1ccc(Cl)cc1 | 210 | > 63000 | 
22 | COc1ccc2c(c1)c(CC(=O)NC[C@@H](C)O)c(C)n2C(=O)c1ccc(Cl)cc1 | 330 | 52000 | 
23 | COc1ccc2c(c1)c(CC(=O)N[C@@H](C)CO)c(C)n2C(=O)c1ccc(Cl)cc1 | 270 | 590 | IC50 [3]: 250 nM; IC50 [4]: 300 nM; IC50 [5]: 200 nM; IC50 [7]: 60 nM; IC50 [8]: 75 nM; IC50 [9]: 200 nM; IC50 [10]: 150 nM; IC50 [11]: 220 nM; IC50 [12]: 110 nM; IC50 [13]: 390 nM; IC50 [14]: 210 nM; IC50 [18]: 160 nM; IC50 [15]: 170 nM; IC50 [16]: 85 nM; IC50 [17]: 220 nM
24 | COc1ccc2c(c1)c(CC(=O)N[C@@H](CO)CC(C)C)c(C)n2C(=O)c1ccc(Cl)cc1 | 500 | > 63000 | 
25 | COc1ccc2c(c1)c(CC(=O)N[C@@H](CO)C(C)C)c(C)n2C(=O)c1ccc(Cl)cc1 | 110 | > 63000 | 
26 | COc1ccc2c(c1)c(CC(=O)NC[C@H](O)c1ccccc1)c(C)n2C(=O)c1ccc(Cl)cc1 | 210 | > 63000 | 
27 | COc1ccc2c(c1)c(CC(=O)N[C@H](CO)Cc1ccccc1)c(C)n2C(=O)c1ccc(Cl)cc1 | 85 | < 3900 | 
28 | COc1ccc2c(c1)c(CC(=O)N[C@@H](CO)CCSC)c(C)n2C(=O)c1ccc(Cl)cc1 | 250 | 51000 | 
29 | COc1ccc2c(c1)c(CC(=O)NC(C)(C)CO)c(C)n2C(=O)c1ccc(Cl)cc1 | 190 | 800 | 
30 | COc1ccc2c(c1)c(CC(=O)NC[C@@H](O)c1ccccc1)c(C)n2C(=O)c1ccc(Cl)cc1 | 47 | 56000 | 
